Data: US12498382B2, “Biomarkers for vitiligo” (INCYTE CORPORATION, priority 2019, dated 2025)

Tested on: HaCaT cells
Test: Concentrations of inflammatory mediators produced by HaCaT cells stimulated with TNFα and IFNγ in presence/absence of JAK inhibitors (ProCarta)
Type: cell-based, human
Experimental: After 48 hours, cell culture media was removed from 24 well plates and replaced with 250 uL of media containing serial diluted drug, then incubated for 15 minutes at 37° C./5% CO2. […] The final concentration of Recombinant Human Interferon gamma and Recombinant Human Tumor Necrosis Factor alpha was 25 ng/mL of each cytokine. Cytokine stimulation added to wells containing drug brought the final concentrations for each drug treatment to 25 nM, 50 nM, 100 nM, and 200 nM. Treated plates were mixed by gentle agitation for 30 seconds then incubated for 24 hours at 37° C./5% CO2. At the end of the 24 hour incubation media was immediately removed from each plate.
Media was incubated with antibody conjugated beads designed to bind to the epitopes of specific target proteins and identify the bound protein through the bead's distinctive spectral pattern. Biotinylated detection antibodies, designed to bind to different epitopes of the same target proteins, and Streptavidin-PE are added to assay plates to quantify the amount of the target proteins. Assay plates were read on the Luminex 200 and data were expressed as Net Median Fluorescence Intensity. […] The concentration of each protein was extrapolated from the antigen standard curve and concentrations were expressed as pg/mL (Table 15).

[1] = TNFα+IFNγ 25 ng/mL each, drug conc. 3rd of 4 rows (cell not shown; prob. 100 nM)
[2] = TNFα+IFNγ 25 ng/mL each, drug conc. 4th of 4 rows (cell not shown; prob. 200 nM)
[3] = drug present, concentration not given

SMILES: Cc1n[nH]c(C)c1-c1cnn(C2(CC#N)CN(c3cc(F)c(C(=O)N[C@@H](C)C(F)(F)F)cc3F)C2)c1 [Cpd C, 4-[3-(Cyanomethyl)-3-(3′,5′-dimethyl-1H,1′H-4,4′-bipyrazol-1-yl)azetidin-1-yl]-2,5-difluoro-N-[(1S)-2,2,2-trifluoro-1-methylethyl]benzamide]
- IL21 concentration [1]: 2.6 ± 0.28 pg/mL
- IL22 concentration [1]: 7.31 ± 1.07 pg/mL
- IL23 concentration [1]: 6.7 ± 0.73 pg/mL
- IL27 concentration [1]: 5.7 ± 1.04 pg/mL
- IL31 concentration [1]: 2.95 ± 0.38 pg/mL
- IP-10/CXCL10 concentration [1]: 3860.41 ± 323.05 pg/mL
- LIF concentration [1]: 73.12 ± 3.62 pg/mL
- MCP1 concentration [1]: 26334.64 ± 11134.64 pg/mL
- MIP1 alpha concentration [1]: 96.4 ± 4.18 pg/mL
- MIP1 beta concentration [1]: 324.42 ± 8.52 pg/mL
- PDGF-BB concentration [1]: 5.57 ± 0.23 pg/mL
- PIGF-1 concentration [1]: 58.69 ± 3.37 pg/mL
- RANTES concentration [1]: 207.79 ± 17.38 pg/mL
- SCF concentration [1]: 4.59 ± 0.25 pg/mL
- SDF-1 alpha concentration [1]: 3521.98 ± 154.06 pg/mL
- TNF alpha concentration [1]: 10632.61 ± 795.65 pg/mL
- TNF beta concentration [1]: 4.6 ± 0.46 pg/mL
- VEGF-A concentration [1]: 1335.99 ± 63.65 pg/mL
- VEGF-D concentration [1]: 9.25 ± 0.7 pg/mL
- IFN gamma concentration [2]: 25179.01 ± 3591.71 pg/mL
- IL1RA concentration [2]: 5756.59 ± 328.24 pg/mL
- IL1 alpha concentration [2]: 6.45 ± 0.38 pg/mL
- IL1 beta concentration [2]: 8.71 ± 0.5 pg/mL
- IL2 concentration [2]: 30.68 ± 1.62 pg/mL
- IL4 concentration [2]: 7.07 ± 0.88 pg/mL
- IL5 concentration [2]: 27.1 ± 1.76 pg/mL
- IL7 concentration [2]: 1.91 ± 0.11 pg/mL
- IL8 concentration [2]: 2874.26 ± 169.59 pg/mL
- IL9 concentration [2]: 3.66 ± 0.04 pg/mL
- IL10 concentration [2]: 0.84 ± 0.08 pg/mL
- IL12p70 concentration [2]: 1.79 ± 0.23 pg/mL
- IL13 concentration [2]: 2.12 ± 0.3 pg/mL
- IL15 concentration [2]: 2.32 ± 0.44 pg/mL
- IL17A concentration [2]: 4 ± 0.34 pg/mL
- IL18 concentration [2]: 157.36 ± 4.56 pg/mL
- IL21 concentration [2]: 2.45 ± 0.29 pg/mL
- IL22 concentration [2]: 8.24 ± 0.53 pg/mL
- IL23 concentration [2]: 6.95 ± 0.48 pg/mL
- IL27 concentration [2]: 6.59 ± 0.99 pg/mL
- IL31 concentration [2]: 3.34 ± 0.69 pg/mL
- IP-10/CXCL10 concentration [2]: 3835.78 ± 304.58 pg/mL
- LIF concentration [2]: 70.66 ± 3.22 pg/mL
- MCP1 concentration [2]: 19811.45 ± 4611.45 pg/mL
- MIP1 alpha concentration [2]: 98.72 ± 3.87 pg/mL
- MIP1 beta concentration [2]: 318.74 ± 8.72 pg/mL
- PDGF-BB concentration [2]: 5.52 ± 0.27 pg/mL
- PIGF-1 concentration [2]: 55.71 ± 3.28 pg/mL
- RANTES concentration [2]: 189.62 ± 13.78 pg/mL
- SCF concentration [2]: 4.23 ± 0.15 pg/mL
- SDF-1 alpha concentration [2]: 3436.48 ± 134.91 pg/mL
- TNF alpha concentration [2]: 10619.05 ± 1276.72 pg/mL
- TNF beta concentration [2]: 3.78 ± 0.57 pg/mL
- VEGF-A concentration [2]: 1262.36 ± 57.42 pg/mL
- VEGF-D concentration [2]: 8.82 ± 0.7 pg/mL
- IL1RA concentration [3]: 488.84 ± 49.85 pg/mL
- IL1 alpha concentration [3]: 0.3 ± 0.05 pg/mL
- IL1 beta concentration [3]: 0.93 ± 0.17 pg/mL
- IL2 concentration [3]: 2.65 ± 0.28 pg/mL
- IL4 concentration [3]: 4.89 ± 1.18 pg/mL
- IL5 concentration [3]: 3.04 ± 0.41 pg/mL
- IL6 concentration [3]: 28.49 ± 2.89 pg/mL
- IL7 concentration [3]: 3.35 ± 0.18 pg/mL
- IL8 concentration [3]: 269.53 ± 10.35 pg/mL
- IL9 concentration [3]: 3.65 ± 0.2 pg/mL
- IL10 concentration [3]: 0.4 ± 0.11 pg/mL
- IL12p70 concentration [3]: 1.52 ± 0.29 pg/mL
- IL13 concentration [3]: 1.08 ± 0.13 pg/mL
- IL15 concentration [3]: 1.98 ± 0.49 pg/mL
- IL17A concentration [3]: 1.39 ± 0.22 pg/mL
- IL18 concentration [3]: 5.89 ± 0.58 pg/mL
- IL21 concentration [3]: 2.33 ± 0.29 pg/mL
- IL22 concentration [3]: 7.16 ± 1.16 pg/mL
- IL23 concentration [3]: 6.54 ± 1 pg/mL
- IL27 concentration [3]: 9.17 ± 2.36 pg/mL
- IL31 concentration [3]: 3.28 ± 0.31 pg/mL
- IP-10/CXCL10 concentration [3]: 19.83 ± 0.4 pg/mL
- LIF concentration [3]: 24.24 ± 1.14 pg/mL
- MCP1 concentration [3]: 1158.23 ± 47.13 pg/mL
- MIP1 alpha concentration [3]: 2.9 ± 0.21 pg/mL
- MIP1 beta concentration [3]: 117.97 ± 3.75 pg/mL
- PDGF-BB concentration [3]: 2.19 ± 0.17 pg/mL
- PIGF-1 concentration [3]: 21.19 ± 1.05 pg/mL
- RANTES concentration [3]: 8.61 ± 0.52 pg/mL
- SCF concentration [3]: 2 ± 0.1 pg/mL
- SDF-1 alpha concentration [3]: 1028.82 ± 43.21 pg/mL
- TNF alpha concentration [3]: 2.82 ± 0.72 pg/mL
- TNF beta concentration [3]: 4.5 ± 0.5 pg/mL
- VEGF-A concentration [3]: 609.51 ± 15.83 pg/mL
- VEGF-D concentration [3]: 3.63 ± 0.6 pg/mL
